Experimental data as given in patent US20240196889A1, “USE OF DI- AND TRI[…] ACIDS IN THE PREVENTION OF BIOFILM FORMATION” (priority 2020, published 2024).

Tests used:
[1] = system: Salmonella Typhimurium ATCC 14028; assay: Staining of flagella; type: cell-based, Salmonella enterica serovar Typhimurium; settings: 100 μM vs DMSO, 24 h
Description: An ONC of Salmonella Typhimurium ATCC 14028 was diluted 1/100 in 5 ml TSB 1/20, with either a final concentration of 100 μM agaric or the corresponding amount of DMSO as a control. The planktonic cultures were incubated for 24 h at 25° C., shaking at 200 rpm. The flagella were stained according to Kearns and Losick (2003) Molecular microbiology 49, 581-590. Briefly, the stain consist of ten parts mordant (2 g tannic acid, 10 ml 5% phenol, 10 ml saturated aqueous AIK(SO4)2) mixed with one part stain (12% crystal violet in ethanol). 3 μl of sample was applied to a microscopic slide and covered with a 22 mm×40 mm coverslip. After placing the slide vertically, 10 μl was applied to the top edge of the coverslip in order to stain the sample due to capillary forces. Samples were visualized with phase contrast using a Zeiss Axio Imager Z1 microscope with an EC Plan Neofluar (×100 magnification/1.3 numerical aperture) objective.

[2] = system: S. Typhimurium SL1344 (S1) in mixed-species biofilm with S2 and E1; assay: Mixed-species tolerance assay (CFU); type: cell-based, Salmonella Typhimurium and E. coli
Description: The monospecies and mixed-species biofilms were grown on petri dishes for 48 h at 25° C. as described above. The medium was then replaced by 5 ml PBS with either 0.25% H2O2 or 1 μM ciprofloxacin and the biofilms were incubated for an additional 1 h at 25° C. Subsequently, the biofilms were scraped off and plated out on solid LB agar plates for CFU determination. To differentiate between the strains, S1 was labelled with constitutive gfpmut3 on a plasmid, while S2 and E1 were labelled with plasmid-encoded constitutive dsRed.T4. Differences in colony shape and size allowed differentiation between S2 and E1 during CFU counting.

Salmonella biofilms = assay: Tolerance assay of mature biofilms (H2O2 or ciprofloxacin, CFU); type: cell-based; settings: grown 48 h with 100 μM
Description: It is well established that biofilms can be extremely tolerant to treatment with antimicrobials. To test whether the preventive addition of agaric acid renders Salmonella biofilms more susceptible to treatment with common disinfectants or antibiotics, biofilms grown in the presence and absence of agaric acid for 48 hour were treated for 1 h with 0.25% H2O2 or 1 μM ciprofloxacin. Hydrogen peroxide is a commonly used disinfectant in food industry [Meireles et al. (2016) Food Research International 82, 71-85; Meireles et al. (2016) Food Research International 82, 71-85], whereas ciprofloxacin is a fluoroquinolone antibiotic frequently used to treat Salmonella infections [Tabak et al. (2009) FEMS microbiology letters 301, 69-76].
To determine the tolerance of mature biofilms, biofilms were grown on microscopy glasses (75 mm×25 mm) placed vertical in a 50 ml falcon filled with 30 ml TSB 1/20. This set-up allows for easy transfer of mature biofilms as the top of vertical slide sticks out of the medium which allows to grab the slide with a pincer without damaging the biofilm. ONC of Salmonella were normalized to an OD600 of 3.2 and diluted 1/100 into the broth containing either a final concentration of 100 μM agaric or the corresponding amount of DMSO. […] The number of colony forming units (CFU) of biofilms was determined by plating.

S. aureus SH1000 = assay: Antibiofilm assay (Calgary biofilm device); type: cell-based, Staphylococcus aureus
Description: (§1) A static peg assay for the prevention of bacterial biofilm formation was used as described previously. A lid carrying 96 polystyrene pegs was fitted into a microtiter plate with a peg hanging into each well. Two-fold serial dilutions of the compounds in 100 μl liquid broth per well were prepared in the microtiter plate. Subsequently, an overnight culture was diluted 1:100 into the respective liquid broth, and 100 μl (˜10^6 cells) was added to each well of the microtiter plate, resulting in a total amount of 200 μl medium per well. After placing the lid on the microtiter plate, samples containing Salmonella, Pseudomonas or E. coli were incubated statically in TSB 1/20 for 48 h at 25° C., whereas S. aureus was incubated in undiluted TSB at 37° C. for 48 h. After incubation, the lid was removed from the microtiter plate and liquid culture was transferred to a new microtiter plate prior to determining the prior to determining the planktonic growth in each well via OD600 measurements using a Synergy MX multimode reader (Biotek, Winooski, VT). The pegs were washed once in 200 μl PBS and the remaining attached bacteria were stained for 30 min with 200 μl 0.1% crystal violet in an isopropanol-methanol-PBS solution (1:1:18). Excess stain was washed off by placing the pegs in a 96-well plate filled with 200 μl distilled water per well. Afterwards, the pegs were air dried for 30 min and the dye bound to the adherent cells dissolved into 200 μl 30% glacial acetic acid. The OD570 of each well was measured using a Synergy MX multimode reader. Data was analysed using the GraphPad Prism 6 software.

P. aeruginosa PA14 = assay: Antibiofilm assay (Calgary biofilm device); type: cell-based, Pseudomonas aeruginosa
Description: as §1

[3] = comparison of effective concentrations

## CCCCCCCCCCCCCCCCC(C(=O)O)C(O)(CC(=O)O)C(=O)O (stereo not shown) [Agaric acid, 2-hydroxynonadecane-1,2,3-tricarboxylic acid]
[1]
  flagellar appearance: no differences in flagellar appearance
[2]; 0.25% H2O2 or 1 μM ciprofloxacin, 1 h
  enhanced tolerance of S1 in mixed-species conditions: completely abolished the enhanced tolerance of S1
[2]; in presence of agaric acid
  number of S1 cells surviving antimicrobial treatment in mixed-species communities: lowest number of S1 cells surviving antimicrobial treatment
[2]; preventive treatment, 0.25% H2O2 or 1 μM ciprofloxacin, 1 h
  tolerance of remaining biofilm cells towards ciprofloxacin and H2O2: reduced the tolerance of the remaining biofilm cells
Salmonella biofilms; then 1 μM ciprofloxacin for 1 h
  susceptibility of biofilms to ciprofloxacin: further increased the effect of a ciprofloxacin treatment, albeit not significantly
Salmonella biofilms; then 0.25% H2O2 for 1 h
  susceptibility of biofilms to H2O2: significantly more susceptible to hydrogen peroxide
S. aureus SH1000
  planktonic growth (OD600): inhibits
S. aureus SH1000; [3]
  biofilm inhibition versus bactericidal effect: biofilm inhibition occurred already at a lower concentration than the bactericidal effect
S. aureus SH1000; crystal violet staining, undiluted TSB, 37° C., 48 h
  biofilm formation: inhibits
P. aeruginosa PA14
  planktonic growth (OD600): inhibits
P. aeruginosa PA14; [3]
  biofilm inhibition versus planktonic growth inhibition: planktonic growth is reduced at lower concentrations than biofilm inhibition
P. aeruginosa PA14; crystal violet staining
  biofilm formation: inhibits
P. aeruginosa PA14; high concentrations of agaric acid
  biofilm inhibition versus planktonic growth inhibition at high concentrations: biofilm formation is inhibited to a higher extent than planktonic growth
